The text below walks through data of PubChem BioAssay AID1259407 (Chemical Carcinogenesis Research Information System (CCRIS), 2018).

The test system of the data set is CCRIS mutagenicity, Ames/micronucleus/aberration tests. Put plainly: CCRIS mutagenicity studies. Conditions: Test System: AMES SALMONELLA TYPHIMURIUM
Setting [1] is: Strain/Indicator: TA98, Metabolic Activation: NONE, Method: PREINCUBATION
Setting [2] is: Strain/Indicator: TA98, Metabolic Activation: NONE, Method: STANDARD PLATE.
The mark [3] stands for this setting: Strain/Indicator: TA98, Metabolic Activation: RAT, LIVER, S-9, PHENOBARBITAL, Method: STANDARD PLATE.

Each structure is given as a SMILES string. Calls of active or inactive are those of the source. How the calls were made is not given here.

For the molecule `CC(C)C(C)C`, the mutagenic call by setting is: (Strain/Indicator: TA97, Metabolic Activation: HAMSTER, LIVER, S-9, AROCLOR 1254 (10 OR 30%), Method: PREINCUBATION) “inactive; negative”; (Strain/Indicator: TA97, Metabolic Activation: NONE, Method: PREINCUBATION) “inactive; negative”; (Strain/Indicator: TA97, Metabolic Activation: RAT, LIVER, S-9, AROCLOR 1254 (10 OR 30%), Method: PREINCUBATION) “inactive; negative”; (Strain/Indicator: TA98, Metabolic Activation: HAMSTER, LIVER, S-9, AROCLOR 1254 (10%), Method: PREINCUBATION) “inactive; negative”; (Strain/Indicator: TA98, Metabolic Activation: HAMSTER, LIVER, S-9, AROCLOR 1254 (30%), Method: DESICCATOR) “inactive; negative”; (Strain/Indicator: TA98, Metabolic Activation: HAMSTER, LIVER, S-9, AROCLOR 1254 (30%), Method: PREINCUBATION) “inactive; negative”. The mutagenic call (Strain/Indicator: TA98, Metabolic Activation: NONE, Method: DESICCATOR) is “inactive; negative”; the mutagenic call under setting [1] was “inactive; negative”; the mutagenic call (Strain/Indicator: TA98, Metabolic Activation: RAT, LIVER, S-9, AROCLOR 1254 (10%), Method: PREINCUBATION) is “inactive; negative”; the mutagenic call (Strain/Indicator: TA98, Metabolic Activation: RAT, LIVER, S-9, AROCLOR 1254 (30%), Method: DESICCATOR) is “inactive; negative”; the mutagenic call (Strain/Indicator: TA98, Metabolic Activation: RAT, LIVER, S-9, AROCLOR 1254 (30%), Method: PREINCUBATION) is “inactive; negative”; the mutagenic call (Strain/Indicator: TA100, Metabolic Activation: HAMSTER, LIVER, S-9, AROCLOR 1254 (10%), Method: PREINCUBATION) is “inactive; negative”. Besides, the mutagenic call was “inactive; negative” (Strain/Indicator: TA100, Metabolic Activation: HAMSTER, LIVER, S-9, AROCLOR 1254 (30%), Method: DESICCATOR); “inactive; negative” (Strain/Indicator: TA100, Metabolic Activation: HAMSTER, LIVER, S-9, AROCLOR 1254 (30%), Method: PREINCUBATION); “inactive; negative” (Strain/Indicator: TA100, Metabolic Activation: NONE, Method: DESICCATOR); “inactive; negative” (Strain/Indicator: TA100, Metabolic Activation: NONE, Method: PREINCUBATION); “inactive; negative” (Strain/Indicator: TA100, Metabolic Activation: RAT, LIVER, S-9, AROCLOR 1254 (10%), Method: PREINCUBATION); “inactive; negative” (Strain/Indicator: TA100, Metabolic Activation: RAT, LIVER, S-9, AROCLOR 1254 (30%), Method: DESICCATOR). For the same molecule, the mutagenic call runs as follows: (Strain/Indicator: TA100, Metabolic Activation: RAT, LIVER, S-9, AROCLOR 1254 (30%), Method: PREINCUBATION) “inactive; negative”; (Strain/Indicator: TA1535, Metabolic Activation: HAMSTER, LIVER, S-9, AROCLOR 1254 (10 OR 30%), Method: PREINCUBATION) “inactive; negative”; (Strain/Indicator: TA1535, Metabolic Activation: NONE, Method: PREINCUBATION) “inactive; negative”; (Strain/Indicator: TA1535, Metabolic Activation: RAT, LIVER, S-9, AROCLOR 1254 (10 OR 30%), Method: PREINCUBATION) “inactive; negative”.
As for `COc1c2ccoc2cc2oc(=O)ccc12`, the mutagenic call under setting [2] is “inactive; negative” and the mutagenic call under setting [3] was “inactive; negative”.
As to `Cc1c2ccncc2c(C)c2c1[nH]c1ccc(N)cc12`, the mutagenic call by setting is: under setting [2], “active; positive”; under setting [3], “active; positive”; (Strain/Indicator: TA100, Metabolic Activation: NONE, Method: STANDARD PLATE) “inactive; negative”; (Strain/Indicator: TA100, Metabolic Activation: RAT, LIVER, S-9, PHENOBARBITAL, Method: STANDARD PLATE) “inactive; negative”; (Strain/Indicator: TA1537, Metabolic Activation: NONE, Method: STANDARD PLATE) “active; positive”; (Strain/Indicator: TA1537, Metabolic Activation: RAT, LIVER, S-9, PHENOBARBITAL, Method: STANDARD PLATE) “active; positive”. Further, the mutagenic call by setting is: (Strain/Indicator: TA1538, Metabolic Activation: NONE, Method: STANDARD PLATE) “active; positive”; (Strain/Indicator: TA1538, Metabolic Activation: RAT, LIVER, S-9, PHENOBARBITAL, Method: STANDARD PLATE) “active; positive”.
In the case of `Nc1ccc(-c2cc(Cl)c(N)c(Cl)c2)cc1`, the mutagenic call is “active; positive” (Strain/Indicator: TA98, Metabolic Activation: HAMSTER, LIVER, S-9, Method: PREINCUBATION) and “inactive; negative” under setting [1].
